Results published in US6875886B2, “Modified PSMA ligands and uses related thereto” (Beth Israel Deaconess Medical Center, Inc., priority 2001, dated 2005).
Where a SMILES comes first, the peptide text is derived from it.

Key:
PSMA = PSMA (Homo sapiens, UniProt Q04609); experiment: 3H-NAAG assay of PSMA enzymatic activity; format: biochemical
Text: To determine the effects of several PSMA ligands and modified PSMA ligands (β-AG/78) on PSMA activity, ^3H-NAAG assay (Slusher et al., J. Biol. Chem., 1990, 265: 21297-301) was used to measure the activity of PSMA at the presence or absence of several PSMA ligands.
β-AG/78 (FIG. 5, bottom panel) is a conjugate of β-AG and the near-infrared fluorophore IRDye78. The conjugate can be synthesized using a similar scheme as shown in Example 1, and the product can be purified using either TLC (not shown) or HPLC, as shown in FIG. 6. As a control, IRDye78 was also tested. The results were shown as percentage of remaining PSMA activity as compared to PSMA activity without any additives, over a range of inhibitor concentrations.

NAALADase = NAALADase with NAAG as substrate; cited from earlier work

Sequence of PSMA (Q04609 whole entry): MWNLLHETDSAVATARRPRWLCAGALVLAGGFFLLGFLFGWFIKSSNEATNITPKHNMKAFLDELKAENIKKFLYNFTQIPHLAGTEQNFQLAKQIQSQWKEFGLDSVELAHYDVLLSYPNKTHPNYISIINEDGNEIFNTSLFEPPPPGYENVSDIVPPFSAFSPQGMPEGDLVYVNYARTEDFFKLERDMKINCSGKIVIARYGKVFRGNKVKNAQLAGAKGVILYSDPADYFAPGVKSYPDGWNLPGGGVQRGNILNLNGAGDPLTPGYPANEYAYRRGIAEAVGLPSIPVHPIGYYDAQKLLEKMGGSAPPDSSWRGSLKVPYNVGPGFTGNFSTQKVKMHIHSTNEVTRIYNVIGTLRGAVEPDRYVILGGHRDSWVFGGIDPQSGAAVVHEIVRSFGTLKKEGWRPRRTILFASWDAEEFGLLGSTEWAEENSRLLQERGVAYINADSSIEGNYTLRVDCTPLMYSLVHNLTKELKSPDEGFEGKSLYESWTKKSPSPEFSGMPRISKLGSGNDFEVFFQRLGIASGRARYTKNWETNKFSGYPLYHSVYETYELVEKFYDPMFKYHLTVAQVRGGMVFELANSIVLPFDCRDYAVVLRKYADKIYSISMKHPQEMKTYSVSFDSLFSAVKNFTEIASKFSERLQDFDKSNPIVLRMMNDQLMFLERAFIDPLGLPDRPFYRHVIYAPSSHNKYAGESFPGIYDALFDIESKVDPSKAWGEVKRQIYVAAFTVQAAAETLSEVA

Compound	inhibitory potency relative to comparator (PSMA; comparison of inhibition curves)	inhibition of PSMA enzymatic activity (PSMA; percentage of remaining PSMA activity over a range of inhibitor concentrations)	Km (NAALADase)
N[C@@H](CC(=O)N[C@@H](CCC(=O)O)C(=O)O)C(=O)O [β-AG, β-Asp-Glu]	slightly less potent than that of beta-N-acetyl-AG (β-NAAG)	is indeed an inhibitor of PSMA enzymatic activity	–
CC(=O)N[C@@H](CC(=O)O)C(=O)N[C@@H](CCC(=O)O)C(=O)O [NAAG, N-acetyl-aspartyl-glutamate] (Ac-Asp-Glu-OH)	–	–	0.54 µM
